Source: patent publication US10011571B2, “Preparation method for aromatic heterocyclic compound used as selective JAK3 and/or JAK1 kinase inhibitor and application of aromatic heterocyclic compound” (SHENZHEN CHIPSCREEN BIOSCIENCES, LTD., priority 2014, dated 2018)
Counter-ions that a name gives are not always drawn.

Key:
[1] = biological target: JAK3 (Homo sapiens (Human), UniProt P52333); assay: Z'-LYTE enzymatic activity detection, JAK3; format: biochemical; details: test compound 30 nM; for inhibition at 0.03 µM: read-out: JAK3 % inhibitory rate @30 nM
JAK3, sequence (P52333 whole entry): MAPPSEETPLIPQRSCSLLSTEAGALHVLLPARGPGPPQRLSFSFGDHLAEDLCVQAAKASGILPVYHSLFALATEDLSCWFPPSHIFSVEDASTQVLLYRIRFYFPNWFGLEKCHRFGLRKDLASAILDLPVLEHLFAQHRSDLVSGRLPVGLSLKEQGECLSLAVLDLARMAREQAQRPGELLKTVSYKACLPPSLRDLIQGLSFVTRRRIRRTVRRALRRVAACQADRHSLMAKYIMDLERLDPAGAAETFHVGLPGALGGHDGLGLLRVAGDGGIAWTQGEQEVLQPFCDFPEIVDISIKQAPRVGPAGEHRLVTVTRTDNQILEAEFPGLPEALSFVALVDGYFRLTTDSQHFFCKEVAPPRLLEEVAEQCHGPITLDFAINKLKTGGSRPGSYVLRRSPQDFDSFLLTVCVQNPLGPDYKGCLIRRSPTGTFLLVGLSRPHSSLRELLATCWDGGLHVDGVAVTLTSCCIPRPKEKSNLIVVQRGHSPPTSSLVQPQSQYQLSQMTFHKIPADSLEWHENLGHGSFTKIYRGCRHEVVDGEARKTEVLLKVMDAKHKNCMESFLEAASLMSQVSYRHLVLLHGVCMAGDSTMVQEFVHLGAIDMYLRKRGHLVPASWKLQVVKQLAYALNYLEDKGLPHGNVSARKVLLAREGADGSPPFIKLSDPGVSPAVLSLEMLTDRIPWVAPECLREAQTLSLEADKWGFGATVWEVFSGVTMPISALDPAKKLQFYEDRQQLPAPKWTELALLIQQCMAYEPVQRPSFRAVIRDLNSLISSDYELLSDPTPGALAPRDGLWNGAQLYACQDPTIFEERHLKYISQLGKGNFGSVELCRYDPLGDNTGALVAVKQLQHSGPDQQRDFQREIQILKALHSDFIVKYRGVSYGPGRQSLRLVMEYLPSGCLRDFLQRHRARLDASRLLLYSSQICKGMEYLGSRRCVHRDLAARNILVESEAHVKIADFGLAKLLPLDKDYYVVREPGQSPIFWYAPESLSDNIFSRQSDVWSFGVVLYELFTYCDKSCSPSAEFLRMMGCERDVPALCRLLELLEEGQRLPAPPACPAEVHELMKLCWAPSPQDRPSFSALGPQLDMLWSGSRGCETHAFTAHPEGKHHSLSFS
How it was run: (§1)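 GST-tagged human recombinant kinases with Z′-LYTE peptides (Tyr6 for JAK1, Tyr4 for JAK2 and JAK3), ATP from kit, reacted 1 h at room temperature; development 1 h, ratio 445/520 nm at 400 nm excitation gives phosphorylation. Inhibition vs solvent control at 30 nM (JAK2, JAK3) or 300 nM (JAK1); tofacitinib as positive control.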

[2] = biological target: JAK1 (Homo sapiens (Human), UniProt P23458); assay: Z'-LYTE enzymatic activity detection, JAK1; format: biochemical; details: test compound 300 nM; for inhibition at 0.3 µM: read-out: JAK1 % inhibitory rate @300 nM
JAK1, sequence (P23458 whole entry): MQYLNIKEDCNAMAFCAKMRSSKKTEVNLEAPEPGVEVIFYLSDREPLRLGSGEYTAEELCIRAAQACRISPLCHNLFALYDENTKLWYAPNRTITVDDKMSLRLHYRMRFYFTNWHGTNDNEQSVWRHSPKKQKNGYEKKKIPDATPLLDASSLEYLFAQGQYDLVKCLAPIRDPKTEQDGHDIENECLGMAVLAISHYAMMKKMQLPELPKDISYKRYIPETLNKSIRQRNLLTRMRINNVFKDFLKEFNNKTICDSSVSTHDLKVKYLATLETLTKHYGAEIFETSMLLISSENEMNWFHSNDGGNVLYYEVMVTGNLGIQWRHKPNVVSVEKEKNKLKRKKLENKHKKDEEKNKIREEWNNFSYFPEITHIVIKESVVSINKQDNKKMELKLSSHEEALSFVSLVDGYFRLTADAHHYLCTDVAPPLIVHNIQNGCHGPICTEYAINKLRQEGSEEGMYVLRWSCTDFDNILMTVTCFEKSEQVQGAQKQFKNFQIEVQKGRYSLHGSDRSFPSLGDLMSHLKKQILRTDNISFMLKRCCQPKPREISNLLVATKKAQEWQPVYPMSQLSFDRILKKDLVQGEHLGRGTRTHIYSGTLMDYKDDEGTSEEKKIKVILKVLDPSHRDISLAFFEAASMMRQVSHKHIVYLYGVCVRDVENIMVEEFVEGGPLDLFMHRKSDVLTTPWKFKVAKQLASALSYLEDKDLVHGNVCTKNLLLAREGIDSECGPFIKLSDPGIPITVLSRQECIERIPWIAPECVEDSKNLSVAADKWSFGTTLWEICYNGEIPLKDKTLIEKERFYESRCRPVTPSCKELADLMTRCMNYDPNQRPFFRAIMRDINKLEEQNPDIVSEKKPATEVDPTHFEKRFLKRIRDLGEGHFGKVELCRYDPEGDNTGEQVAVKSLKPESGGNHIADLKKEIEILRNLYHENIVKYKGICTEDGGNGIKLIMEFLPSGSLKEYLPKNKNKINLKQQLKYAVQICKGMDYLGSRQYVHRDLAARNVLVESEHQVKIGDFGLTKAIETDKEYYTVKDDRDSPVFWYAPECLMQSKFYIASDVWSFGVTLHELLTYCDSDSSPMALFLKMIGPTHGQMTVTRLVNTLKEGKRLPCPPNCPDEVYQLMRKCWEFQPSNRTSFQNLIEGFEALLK
How it was run: as §1

[3] = biological target: JAK2 (Homo sapiens (Human), UniProt O60674); assay: Z'-LYTE enzymatic activity detection, JAK2; format: biochemical; details: test compound 30 nM; for inhibition at 0.03 µM: read-out: JAK2 % inhibitory rate @30 nM
JAK2, sequence (O60674 whole entry): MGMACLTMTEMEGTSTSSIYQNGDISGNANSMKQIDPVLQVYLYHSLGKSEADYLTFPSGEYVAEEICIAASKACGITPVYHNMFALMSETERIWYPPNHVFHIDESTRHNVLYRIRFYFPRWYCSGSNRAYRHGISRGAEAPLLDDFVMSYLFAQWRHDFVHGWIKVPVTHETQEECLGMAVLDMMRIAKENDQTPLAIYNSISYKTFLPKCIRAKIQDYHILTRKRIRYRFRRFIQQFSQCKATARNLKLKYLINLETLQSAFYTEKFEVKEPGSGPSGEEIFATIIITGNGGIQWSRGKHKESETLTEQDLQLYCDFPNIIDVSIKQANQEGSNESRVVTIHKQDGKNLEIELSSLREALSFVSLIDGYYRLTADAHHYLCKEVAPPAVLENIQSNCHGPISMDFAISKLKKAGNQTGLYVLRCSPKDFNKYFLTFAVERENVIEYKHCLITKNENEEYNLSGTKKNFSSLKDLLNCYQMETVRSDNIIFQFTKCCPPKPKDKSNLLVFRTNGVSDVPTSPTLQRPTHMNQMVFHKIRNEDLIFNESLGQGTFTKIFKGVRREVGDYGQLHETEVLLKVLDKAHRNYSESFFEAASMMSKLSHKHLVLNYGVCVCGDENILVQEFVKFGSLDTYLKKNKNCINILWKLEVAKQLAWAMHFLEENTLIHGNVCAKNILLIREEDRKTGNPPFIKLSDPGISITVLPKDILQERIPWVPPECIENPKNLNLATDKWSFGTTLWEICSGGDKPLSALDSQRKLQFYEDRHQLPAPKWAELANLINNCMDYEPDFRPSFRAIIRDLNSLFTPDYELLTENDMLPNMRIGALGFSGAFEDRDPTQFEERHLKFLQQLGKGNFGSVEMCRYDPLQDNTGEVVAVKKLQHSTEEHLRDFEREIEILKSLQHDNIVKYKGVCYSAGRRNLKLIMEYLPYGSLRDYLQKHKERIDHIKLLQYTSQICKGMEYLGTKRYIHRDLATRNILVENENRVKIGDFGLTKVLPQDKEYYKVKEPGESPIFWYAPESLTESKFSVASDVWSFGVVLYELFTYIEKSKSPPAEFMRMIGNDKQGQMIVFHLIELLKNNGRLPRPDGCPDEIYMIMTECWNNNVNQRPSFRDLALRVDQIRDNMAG
How it was run: as §1

[4] = test system: CTLL-2 cells; assay: Cell growth activity assay (MTS), CTLL-2 cell model; format: cell-based, mouse; details: Mus musculus; for activity at 0.3 µM: CTLL-2, 300 nM, 24 h, read-out: CTLL-2 % growth rate @300 nM
How it was run: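 Mouse IL-2-dependent T-cell line seeded ~20,000 cells/well, compounds added after 24 h at gradient concentrations (top 10 μM; CTLL-2 evaluation at 300 nM), cultured another 24 h. MTS/PMS added, 2 h at 37° C, absorbance 490 nm; inhibition vs DMSO control after negative-control background subtraction, GI50 calculated; triplicate.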

[5] = test system: HeLa cells; assay: Cell growth activity assay (MTS), HeLa cell model; format: cell-based, human; parameters: activity: dose or concentration left out as unconfirmed; details: Homo sapiens, HeLa, 72 h; for activity: read-out: HeLa % growth rate
How it was run: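 HeLa human cervical cancer cells were plated at about 5000 cells/well in a 96-well plate. After 24 h, test compounds were added in concentration gradients (highest final concentration 40 μM), alongside a DMSO solvent control and a negative control. After another 72 h, the medium was replaced with 100 μL fresh medium plus 20 μL MTS/PMS (20:1). Plates were incubated 2 h at 37° C. and absorbance was read at 490 nm to give growth inhibition and GI50.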

[6] = test system: HUVEC cells; assay: Cell growth activity assay (MTS), HUVEC cell model; format: cell-based; details: Homo sapiens, 72 h; for activity at 10 µM: read-out: HUVEC % growth rate @10 μM
Source text: MTS assay is a routine method for cell toxicity detection. The basic principle is based on the capacity of dehydrogenase in the mitochondria of living cells to reduce a novel yellow […] MTS to formazan, so that the amount of living cells is proportional to the amount of formazan product by detecting the absorbance at 490 nm (OD), thereby speculating the amount of living cells according to the OD value, and understanding the capacity of the test compound to inhibit the growth of cells or to kill the cells.
HeLa cell is a human cervical cancer cell line, and belongs to epithelial tumor cell line; HUVEC is a human umbilical vein endothelial cell, and belongs to primary endothelial cell; both types of cells express all subtypes except for JAK3.
The change of JAK kinase activity has no significant influence on other cell types except for the immune cells, and both cell models mentioned above are mainly used to evaluate whether there are any other kinase targets besides JAK kinases or there are nonselective cell toxicities.
In this experiment, a cultured cell model is incubated with the test compounds at different concentrations for a specific duration. The effect of the treatment by the test compound on the growth of cells is detected using MTS assay.
MTS is performed according to routine procedure in a 96-well plate.
The model cells are inoculated into each well of the 96-well plate at an appropriate concentration (about 5000 cells/well). After 24 h, the test compounds are added at different concentration gradients (the highest final concentration is 40 μM). A solvent control (DMSO) and a negative control are also performed at the same time. Each experiment is repeated for 3 times. The cells are detected after cultured for another 72 h.
After all culture medium is aspirated out of the well, 100 μL fresh medium and 20 μL pre-formulated mixture of MTS and PMS (in a ratio of 20:1) are added to each well. After incubation at 37° C. for 2 h, it is then detected by a microplate reader (490 nm).
The cell growth inhibitory rate and GI50 of the test compound are calculated as above.
Based on the above method, cytological evaluation is performed to the compounds described herein (for the detection of CTLL-2 cell, the concentration of the test compound is 300 nM; […]).

[7] = test system: collagen-induced arthritis (CIA) model of rats; assay: Collagen-induced arthritis (CIA) model of rats; format: in vivo; details: rat CIA
Method: Objective: in this test, arthritis is induced by chicken collagen in Wistar rats. After in vivo administration of the compounds of Example 7 and Example 22, the change of the disease index for arthritis in rats is evaluated to determine the therapeutic effect of the test compounds on rat arthritis.
Experimental animals: 36 female Wistar rats were purchased from the animal experiment center, Sun Yat-Sen University (Guangzhou) with the body weight ranging from 180 to 200 g at the beginning of experiment. Four groups (8 rats in each group) were used as the arthritis model, and another group (4 rats) was used as normal control.
Materials: chicken type II collagen and Freund's complete adjuvant were purchased from Beijing Biolead Science and Technology Development Co., Ltd. Positive control: methotrexat (MTX).
Preparation method: the test compounds were prepared by adding them to freshly prepared 0.2% CMC-Na+0.1% Tween-80 solution in sterile water to a desired concentration and thoroughly mixing through ultrasound.
CIA model: the chicken collagen was fully emulsified in equal volume of freud's complete adjuvant, and subcutaneously injected at the tail root of the rat on day 0 for sensitization (250 μL/rat). Another injection was performed at the tail root on day 7 for supplementary immunization (100 μL/rat). After arthritis occurred (on about day 13), the rats were randomly divided into 4 groups with 8 rats in each group. Administration started on day 14 after the first immunization, and lasted for 14 days. The limbs of a rat were visually inspected, and the severity of arthritis was scored in a range from […]: 0=normal; 1=a slight symptom, with signs, such as red and swollen ankle or wrist; 2=moderate red and swollen ankle or wrist; 3=severe red and swollen paw, including toes; 4=severe swollen joint accompanied with dysfunction; the highest score for each rat was 16. The thickness of toes of posterior limbs and the paw volume were measured at the same time.
Medication: the rats were i.g. administered with the compound of Example 7 at a concentration of 40 mg/kg twice/day; or the rats were i.g. administered with the compound of Example 22 at a concentration of 40 mg/kg twice/day. For the positive control, 5 mg/kg MTX was intraperitoneally injected twice a week. The i.g. administration of solvent was used as the negative control. The data obtained 14 days after administration and before administration were compared.

[8] = 14 days after administration, Examples 40 mg/kg i.g. twice/day, MTX 5 mg/kg i.p. twice a week

| Structure (SMILES) | JAK3 RV (ratio between the inhibitory rate of the test compound and that of Xeljanz) [1] | inhibition at 0.03 µM [1] | JAK1 RV (ratio between the inhibitory rate of the test compound and that of Xeljanz) [2] | inhibition at 0.3 µM [2] | JAK2 RV (ratio between the inhibitory rate of the test compound and that of Xeljanz) [3] | inhibition at 0.03 µM [3] | activity at 0.3 µM [4] | activity [5] | activity at 10 µM [6] | Inhibitory rate for arthritis score % [7, 8] | Inhibitory rate for paw volume % [7, 8] | Inhibitory rate for toe thickness % [7, 8] | Body weight growth rate % ([7]; 14 days after administration, solvent = 100.0, Examples 40 mg/kg i.g. twice/day, MTX 5 mg/kg i.p. twice a week) | toxicity to the rats judged from body weight ([7]; compared to the solvent group) | GI50 ([4]; CTLL-2, 24 h) | GI50 [5] | GI50 [6] |
| --- | --- | --- | --- | --- | --- | --- | --- | --- | --- | --- | --- | --- | --- | --- | --- | --- | --- |
| C=CC(=O)Nc1cc(Nc2ncc(Cl)c(NCCCNC(=O)c3ccc(F)cc3)n2)ccc1F [Example 17, N-(3-(2-(3-acrylamido-4-fluoro-phenylamino)-5-chloropyrimidinyl-4-amino)propyl)-4-fluorobenzamide] | 0.97 | 84% | 0.93 | 79% | 0.03 | 1% | 20% | 1% | 1% |  |  |  |  |  |  |  |  |
| C=CC(=O)N(C)c1cc(Nc2ncc(C)c(NCCCNC(=O)c3ccc(F)cc3)n2)ccc1F [Example 19, 4-fluoro-N-(3-(2-(4-fluoro-3-(N-methylacrylamido)phenylamino)-5-methylpyrimidinyl-4-amino)propyl)benzamide] |  | 59% |  | 39% |  | 0% | 67% | 108% | 136% |  |  |  |  |  |  |  |  |
| C=CC(=O)N(C)c1cc(Nc2ncc(C)c(NCCCNC(=O)c3ccc(C(F)(F)F)cc3)n2)ccc1F [Example 21, N-(3-(2-(4-fluoro-3-(N-methylacrylamido)phenylamino)-5-methylpyrimidinyl-4-amino)propyl)-4-trifluoromethylbenzamide] | 0.82 | 71% | 0.69 | 59% | 0.07 | 2% | 57% | 94% | 102% |  |  |  |  |  |  |  |  |
| C=CC(=O)N(C)c1cc(Nc2ncc(Cl)c(NCCCNC(=O)C3CCN(C)CC3)n2)ccc1F [Example 27, N-(3-(5-chloro-2-(4-fluoro-3-(N-methylacrylamido)phenylamino)pyrimidinyl-4-amino)propyl)-1-methylpiperidinyl-4-formamide] | 0.59 | 35% | 0.45 | 42% |  |  | 85% | 30% | 6% |  |  |  |  |  |  |  |  |
| C=CC(=O)Nc1cc(Nc2ncc(Cl)c(NCCCNC(=O)c3ccc(C#N)cc3)n2)ccc1F [Example 28, N-(3-(2-(3-acrylamido-4-fluorophenylamino)-5-chloropyrimidinyl-4-amino)propyl)-4-cyano-benzamide] | 0.85 | 81% | 0.40 | 34% | 0.03 | 2% | 77% | 81% | 98% |  |  |  |  |  |  |  |  |
| C=CC(=O)N(C)c1cc(Nc2ncc(Cl)c(NCCCNC(=O)c3ccc(N(C)C)cc3)n2)ccc1F [Example 32, N-(3-(5-chloro-2-(4-fluoro-3-(N-methylacrylamido)phenylamino)pyrimidinyl-4-amino)propyl)-4-dimethylamino benzamide] | 0.94 | 89% | 0.57 | 49% | 0.03 | 2% | 16% | 68% | 72% |  |  |  |  |  |  |  |  |
| CN(Cc1cnc2nc(N)nc(N)c2n1)c1ccc(C(=O)N[C@@H](CCC(=O)O)C(=O)O)cc1 [MTX, methotrexate, reference compound] |  |  |  |  |  |  |  |  |  | 73.1% | 43.1% | 70.2% | 95.4% | certain toxicity |  |  |  |
| C[C@@H]1CCN(C(=O)CC#N)C[C@@H]1N(C)c1ncnc2[nH]ccc12 [Xeljanz, tofacitinib citrate, reference compound] |  |  |  |  |  |  |  |  |  |  |  |  |  |  | 0.067 µM | > 40 µM | > 40 µM |
